Results taken from patent US9155761B2, “Method for the treatment of cancer” (UNIVERSITY COLLEGE CORK, NATIONAL UNIVERSITY OF IRELAND, …, priority 2009, dated 2015).
“Also recorded” adds a separate entry of the source.

Legend:
KYSE450 [1] = assay: Monodansylcadaverine (MDC)-labelled vacuoles; type: cell-based, human; conditions: 25 μM
Method: MDC is an autofluorescent weak base that accumulates in acidic lysosomal vacuoles, showing high selectivity for autophagosomes, due to the high level of unhydrolyzed membrane lipids from engulfed organelles, which enhance MDC fluorescence. Cells were incubated with 0.1 mM MDC in PBS at 37° C. for 10 minutes (Biederbick et al., 1995), washed and immediately analyzed by fluorescent microscopy.

LLC-Luc cells = assay: FITC conjugated LC3 staining of LLC-Luc cells in vitro; type: cell-based; conditions: 5-FU in vitro, 24 and 48 hours
Source text: FITC conjugated LC3 (a known marker of autophagy), forms a green punctate staining pattern in the cytoplasm when it accumulates in forming autophagosomes.

OE33 = assay: Evaluation of cell death morphology by light microscopy; type: cell-based, human; conditions: 5-FU (50 μM) or cisplatin (40 μM), 48 hours
Method: (§1) Morphological features of cells treated with 5-fluorouracil (5-FU)/cisplatin, without and with 3-MA, LY294002, Bafilomycin, Lithium chloride, rapamycin or HA14-I were examined by light microscopy. Morphologies of treated cells were examined 24 and 48 hours post treatment, treatment times are referred to in figure legends. Aliquots of vehicle control and drug treated cells were cytospun onto glass slides and stained with Rapi-Diff (Braidwood laboratories, UK). The extent of apoptotic and non-apoptotic cell death was determined by counting the cells in at least three fields of view per slide, with an average of ˜100 cells per field. Apoptotic cell death is characterized by the presence of two or more of the following morphological features: cell shrinkage, chromatin condensation, DNA degradation and fragmentation into ‘apoptotic bodies’, within an intact plasma membrane. Autophagic cell death was identified by clear elevation of cytoplasmic vesicles, loss of cytoplasmic material, pyknosis of the nuclear material and an intact nuclear membrane. Cytospin images are representative of at least three independent experiments.

OE19 [2] = assay: as above; type: cell-based, human; conditions: 5-FU (50 μM) or cisplatin (40 μM), 48 hours
Method: as §1

KYSE450 [3] = assay: as above; type: cell-based, human
Method: as §1

[4] = tested on: active caspase-3 in OE33 cells; assay: Active caspase-3 by flow cytometry; type: cell-based, human; conditions: 48 hours after treatment
Method: (§2) To examine control and 5-Fluorouracil treated cells for evidence of caspase activity cells were processed by trypsinization, 48 hours after treatment. […] This was detected with an anti rabbit FITC conjugated secondary antibody, and samples were analyzed by FACScan at 530 nm (FL-1). Percentages indicate the proportion of cells with active caspase-3, detected as an increase in the number of FITC (FL-1) labelled cells.

[5] = tested on: active caspase-3 in OE19 cells; assay: Active caspase-3 by flow cytometry; type: cell-based, human; conditions: 48 hours after treatment
Method: as §2

[6] = tested on: active caspase-3 in OE21 cells; assay: Active caspase-3 by flow cytometry; type: cell-based, human
Method: as §2

[7] = tested on: active caspase-3 in KYSE450 cells; assay: Active caspase-3 by flow cytometry; type: cell-based, human; conditions: 48 hours after treatment, range of concentrations
Method: as §2

OE21 = assay: Electron microscopy; type: cell-based, human; conditions: 5-FU (25 μM), 48 hours
Method: (§3) Cells were seeded on semi-porous membranes and incubated in 5-Fluoruracil (5-FU) for 48 hours. Cells were then fixed in a […] phosphate buffer (pH 7.4), containing 2.0% glutaraldehyde, at room temperature (RT) for 40 minutes. Cells were post-fixed in Osmium tetroxide (OsO4) at RT for 60 minutes, dehydrated in ascending grades of ethanol solutions (50%, 70%, 95%, 100% and 100% dry), prior to embedding in Araldite resin. Samples were subjected to a graded infiltration process with araldite (epoxy resin) before being set and sectioned. Representative areas were chosen for ultra-thin sectioning and samples were examined by electron microscopy.

OE19 [8] = assay: Electron microscopy; type: cell-based, human; conditions: 5-FU (25 μM), 48 hours
Method: as §3

[9] = tested on: CT26 (Colorectal carcinoma cells); assay: CT26 colorectal carcinoma model, intratumoural 5-FU / Lithium Chloride; type: in vivo, mice; conditions: intratumoural thrice weekly; Lithium Chloride 200 mg/kg; 5-FU 20 mg/kg
Method: For routine tumour induction, 1×10^6 CT26 (Colorectal carcinoma cells) suspended in 200 μl of serum free DMEM were injected subcutaneously into the right flank of adult female Balb/c mice, after anaesthesia. Mice were randomly divided into experimental groups. Mice were treated at a tumour volume of approximately 60 mm^3 in volume (5-7 mm major diameter). All treatments were delivered in 50 μl volumes, administered directly into the tumour, thrice weekly with PBS (Control), Lithium Chloride (200 mg/kg), 5-FU (20 mg/kg) and a combination of both Lithium and 5-FU (200 mg/kg, 20 mg/kg). Following drug treatment, tumours were monitored by alternate day measurements in two dimensions, using Verniers Calipers. Tumor volumes were calculated according to the formula V=ab^2/6, where ‘a’ is the longest diameter of the tumor and ‘b’ is the longest diameter perpendicular to diameter ‘a’. Animals were culled when tumour volumes exceeded ˜500 mm^3 (no greater than 15 mm in diameter). […] Treatment of these animals was maintained until day 58, following which all treatments ceased.

[10] = tested on: CT26 (Colorectal carcinoma cells); assay: CT26 colorectal carcinoma model, intratumoural Rapamycin / 5-FU; type: in vivo, mice; conditions: intratumoural thrice weekly; Rapamycin 0.6-2 mg/kg; 5-FU 20 mg/kg
Method: For routine tumour induction, 1×10^6 CT26 (Colorectal carcinoma cells) suspended in 200 μl of serum free DMEM are injected subcutaneously into the right flank of adult female Balb/c mice, after anaesthesia. Mice are randomly divided into experimental groups. Mice are treated at a tumour volume of approximately 60 mm^3 in volume (5-7 mm major diameter). […] Following drug treatment, tumours are monitored by alternate day measurements in two dimensions, using Verniers Calipers. Tumor volumes are calculated according to the formula V=ab^2/6, where ‘a’ is the longest diameter of the tumor and ‘b’ is the longest diameter perpendicular to diameter ‘a’. Animals are culled when tumour volumes exceed ˜500 mm^3 (no greater than 15 mm in diameter). […] Treatment of these animals is maintained until day 58, following which all treatments cease.

LC3 in OE19 cells = assay: LC3 / GFP-LC3 processing and distribution (Western blot, fluorescence microscopy); type: cell-based, human
Method: (§4) Total cellular protein extracts were prepared by scraping the cells into modified RIPA buffer (50 mM Tris HCl (pH 7.4), 150 mM NaCl, 0.25% Sodium deoxycholate, 1% Igepal, protease inhibitors 1 mM EDTA, 1× Pefabloc, 1× protease inhibitor cocktail, 1 mM Na3VO4, 1 mM NaF). All protein samples were separated by SDS-PAGE (10/12%) and electrophoretically transferred onto nitrocellulose membrane. All primary antibodies were incubated overnight at 4° C.: anti-phospho mTOR (Ser 2448) and anti-p70^S6K (Thr 389) (Cell Signaling Technologies, UK), anti-Beclin-1 (BD Biosciences, UK) and anti-LC3 (Medical & Biological Laboratories, Japan). The membranes were incubated with the relevant horseradish peroxidase conjugated secondary antibodies (DakoCytomation, Dublin) and detected by chemiluminescence (ECL Amersham, UK).
(§5) To visualize and quantify the formation of autophagic vesicles, the green fluorescent protein (GFP)-LC3 (pEGFP-LC3) expression vector, kindly supplied by Dr. T. Yoshimori (National Institute of Genetics, Japan) was used. Cells were transiently transfected with the Amaxa electroporation system according to the supplier's protocol. Twenty-four hours post transfection, cells were treated with 5-FU and/or Cisplatin, fixed in 4% paraformaldehyde in PBS and transferred onto slides using a non-fluorescent fixative for analysis by fluorescence microscopy. Alternatively, Western Blot analysis was used to assess the expression and processing of LC3. […] The membrane sequestered, lipid-conjugated form of LC3-II remains with the autophagosome membrane after the vesicle has formed, and levels of both isoform are detected by Western Blot. Transfection efficiency was consistent for a given cell line, OE33 and KYSE450 cell lines (˜60-70%) compared to OE19 and OE21 cell lines (˜30%).

LC3 in OE21 cells = assay: as above; type: cell-based, human
Method: as §4, §5

LC3 in OE33 cells = assay: as above; type: cell-based, human
Method: as §4, §5

LC3 in KYSE450 cells = assay: as above; type: cell-based, human
Method: as §4, §5

[11] = 5-FU or cisplatin (images not shown)

For `O=c1[nH]cc(F)c(=O)[nH]1` [5-FU, 5-fluorouracil], the MDC staining pattern (KYSE450 [1]) was “accumulation of MDC (bright blue punctate staining) throughout the cytoplasm”, the “autophagy (FITC conjugated LC3 punctate staining)” value (LLC-Luc cells) was “the extent of autophagy is greatly enhanced” and the cell death morphology (OE33) was “predominantly apoptotic cell death morphology”. The cell death morphology (OE19 [2]) was “predominantly non-apoptotic morphology”, the cell death morphology (KYSE450 [3]; 5-FU (50 μM) or cisplatin (40 μM), 48 hours) was “predominantly non-apoptotic morphology” and the morphology (KYSE450 [3]; HA14-1 (5 μM) and/or 5-FU (50 μM), 24 hours) was “causes autophagic phenotype”. The “active caspase-3” value [4] was “displayed active caspase-3”, the “active caspase-3” value [5] was “do not show caspase-3 activity” and the “proportion of cells with active caspase-3” value ([6]; 5-FU (25 μM/50 μM), 48 hours) was 44%. For the same compound, the “active caspase-3” value ([6]; 48 hours after treatment) was “displayed active caspase-3”, the “active caspase-3” value [7] was “do not show caspase-3 activity; also recorded: fail to show any active caspase-3” and the “ultra structural features (electron microscopy)” value (OE21) was “morphological changes consistent with classical apoptotic cell death”. For the same compound, the “ultra structural features (electron microscopy)” value (OE19 [8]) was “numerous cytoplasmic vacuoles are evident”, the “survival: day beyond which no animal of the group was alive / final animal euthanized” value [9] was 33 days and the “survival: day beyond which no animal of the group is alive / final animal euthanized” value [10] was 33 days. The “GFP-LC3 distribution (fluorescence microscopy)” value (“GFP-LC3 distribution” below) (LC3 in OE19 cells; 5-FU (25 & 50 μM) or cisplatin (10 & 25 μM)) was “Redistribution of GFP-LC3 from a diffuse cytosolic to a punctate autophagosome-associated pattern; also recorded: bright punctate patterns of GFP-LC3 fluorescence”, the “LC3II levels (Western blot, GFP-LC3)” value (LC3 in OE19 cells; 5-FU, 24 hours) was “significant increase in LC3II levels” and the “GFP-LC3 distribution” value (LC3 in OE21 cells; [11]) was “Diffuse cytoplasmic localization of GFP-LC3”. For the same compound, the “induction of autophagosome-associated LC3II band (Western blot)” value (LC3 in OE21 cells; 24 and 48 hours) was “no induction of a lower autophagosome-associated LC3II-band”, the “GFP-LC3 distribution” value (LC3 in OE33 cells; [11]) was “Diffuse cytoplasmic localization of GFP-LC3” and the “induction of autophagosome-associated LC3II band (Western blot)” value (LC3 in OE33 cells; 24 and 48 hours) was “no induction of a lower autophagosome-associated LC3II-band”. For the same compound, the “GFP-LC3 distribution” value (LC3 in KYSE450 cells; 5-FU or cisplatin (data not shown)) was “Redistribution of GFP-LC3 from a diffuse cytosolic to a punctate autophagosome-associated pattern” and the “LC3II levels (Western blot, GFP-LC3)” value (LC3 in KYSE450 cells; 5-FU, 24 hours) was “significant increase in LC3II levels”.
